In patent US20050120398A1, “Animal model for HCV infection” (Vertex Pharmaceuticals Incorporated, priority 2003, published 2005):
“Also recorded” adds a separate entry of the source.

Assays:
[1] = system: Ad.WT.HCVpro; experiment: Liver injury in mice infected with adenovirus expressing WT HCV protease; conditions: 300 mg/kg orally twice a day for the first three days; 10^11 IFU/mice; sacrificed after 7 days
[2] = system: Wild type HCV protease; experiment: Steatosis associated with HCV protease expression, Oil Red O staining of liver sections; format: in vivo, SCID mice; conditions: 300 mg/kg BID oral for the initial 3 days; 10^11 IFU/mouse; sacrificed at 7 days
Protocol: FIG. 25 depicts that steatosis associated with HCV protease expression can be ameliorated by HCV protease inhibitor VX-950. SCID mice were injected with 10^11 IFU/mouse of replication defective adenovirus expressing Wild type HCV protease or mutant HCV protease or SEAP alone (n=6). One group of mice (n=6) injected with adenovirus expressing wild type HCV protease were treated with 300 mg/kg BID via oral route for the initial 3 days. All the mice were sacrificed at 7 days and liver sections were stained with Oil Red O. A significant accumulation of fat in the livers of mice expressing wild type HCV protease compared to either mutant HCV protease or SEAP alone groups (20× magnification).
1. Cryostat frozen sections of livers stored at −80° C. were tested.
2. The Oil Red O Solution was prepared as follows:
a) Stock Solution Oil Red O: 500 mg Oil red O stain (Sigma O-0625) was dissolved in 100 ml isopropanol at room temperature overnight with stirring. The solution was filtered through a #1 Whatman filter. The solution was stored at room temperature protected from light.
b) Working Oil Red Solution was prepared fresh the day of assay. 40% water was mixed with 60% Oil Red O stock by inversion.
c) The working solution was kept at room temperature for 1 hour before filtering. Particulate material was filtered out using a #1 Whatman filter paper.
3. […]
13. The results were assessed by microscopy.

[3] = system: Ad.MT.HCVpro (mutant HCV protease fused with SEAP); experiment: HCV protease mouse model: SEAP in serum, mutant HCV protease adenovirus; format: in vivo, SCID mice; conditions: 300 mg/kg orally twice a day; 10^9.5 IFU/mice Ad.MT.HCVpro; serum 24 hours post-infection

Compound: CCC[C@H](NC(=O)[C@@H]1[C@H]2CCC[C@H]2CN1C(=O)[C@@H](NC(=O)[C@@H](NC(=O)c1cnccn1)C1CCCCC1)C(C)(C)C)C(=O)C(=O)NC1CC1 [VX-950]
- protection from liver injury (gross appearance and H&E liver pathology) [1]: protects mice from Liver injury
- amelioration of steatosis (Oil Red O staining) [2]: effective at ameliorating steatosis; also recorded: ameliorated
- effect on Mutant HCV protease activity (SEAP in serum) [3]: No effect
